Test results taken from PMC5469750, “Antibacterial and detoxifying activity of NZ17074 analogues with multi-layers of selective antimicrobial actions against Escherichia coli and Salmonella enteritidis” (Scientific Reports, 2017).
≈ marks a conversion by molar mass, not a printed value. Where a SMILES comes first, the peptide text is derived from it. Bridges are numbered along the chain shown (N, C = ends). Where no end group is shown, it is not given here.

Experiments:
[1] = tested on: Bacillus subtilis ATCC6633; type: cell-based; conditions: ATCC6633
Protocol: (§1) The antimicrobial activity of peptides was determined by the microbroth dilution method. The bacterial strains were incubated in Mueller-Hinton (MH) medium at 37 °C overnight until the mid-log phase (OD600 nm reading of 0.5). Bacteria were diluted to 1 × 10^5 CFU/ml and added into 96-well plates, followed by the addition of serial dilutions of peptides (from 0.0625 to 128 μg/ml). The plates were incubated at 37 °C for 18–24 h. The MIC value was determined as the lowest peptide concentration at which no bacterial growth was observed. All tests were conducted in triplicate.

[2] = tested on: Enterococcus faecium CMCC1.2136; type: cell-based; conditions: CMCC1.2136
Protocol: as §1

[3] = tested on: Pseudomonas aeruginosa CICC10419; type: cell-based; conditions: CICC10419
Protocol: as §1

S. pullorum CVCC1789 = type: cell-based; conditions: CVCC1789
Protocol: as §1

Escherichia coli CVCC195 = type: cell-based; conditions: CVCC195
Protocol: as §1

[4] = tested on: Salmonella typhimurium ATCC14028; type: cell-based; conditions: ATCC14028
Protocol: as §1

S. pullorum CVCC1802 = type: cell-based; conditions: CVCC1802
Protocol: as §1

S. suis CVCC606 = type: cell-based
Protocol: as §1

S. choleraesuis CVCC503 = type: cell-based; conditions: CVCC503
Protocol: as §1

[5] = tested on: Staphylococcus aureus ATCC43300; type: cell-based; conditions: ATCC43300
Protocol: as §1

S. enteritidis CVCC3377 [6] = type: cell-based, Salmonella enteritidis; conditions: CVCC3377
Protocol: as §1

[7] = tested on: Candida albicans CGMCC2.2411; type: cell-based; conditions: CGMCC2.2411
E. coli CVCC195 = type: cell-based, Escherichia coli; conditions: CVCC195, 3 h, 1
Protocol: (§2) Radioactive precursors were added into cells (1 μCi/ml) and shaken at 37 °C for 20 min. Ice-cold 25% trichloroacetic acid (TCA) was added and placed on ice for 30 min. The cells were centrifuged and washed twice with ice-cold 25% TCA. After drying, the samples were mixed with scintillation fluid and counted for their radioactivity using a MicroBeta 1450 scintillation counter (Perkin Elmer)[62].

S. aureus ATCC25923 = type: cell-based, Staphylococcus aureus; conditions: ATCC25923
Protocol: as §1

P. aeruginosa CICC21630 = type: cell-based, Pseudomonas aeruginosa; conditions: CICC21630
Protocol: as §1

S. enteritidis CVCC3377 [8] = type: cell-based, Salmonella enteritidis; conditions: CVCC3377, 3 h, 1
Protocol: as §2

E. coli CVCC1515 = type: cell-based, Escherichia coli; conditions: CVCC1515
Protocol: as §1

[9] = LPS binding, BODIPY-TR-cadaverine (BC) displacement; conditions: negative control; 50 mM Tris buffer pH 7.4
Protocol: Equal volumes of 40 μg/ml LPS and 10 μM BC in 50 mM Tris buffer (pH 7.4) were mixed, added into 96-well plates and incubated in the dark for 4 h at room temperature. […] Fluorescence was then measured using a microplate reader (excitation/emission, 580/620 nm). The occupancy rate was calculated by the following equation: BC displacement rate (%) = (1 − (F0 − F)/(F0 − Fmax)) × 100, wherein F0 is the fluorescence intensity of the solution of BC alone; Fmax is the fluorescence intensity in the presence of LPS at the saturation concentration, and F is the intensity of LPS:BC mixtures at varying displacer concentrations.

[10] = tested on: Listeria ivanovii ATCC19119; type: cell-based; conditions: ATCC19119
Protocol: as §1

[11] = tested on: E. coli CICC21530 (serotype O157:H7); type: cell-based, Escherichia coli; conditions: microbroth dilution, MH medium, 1 × 10^5 CFU/ml, 37 °C, 18–24 h; representative of three independent experiments
Protocol: as §1

| Compound | MIC [1] [mg/L] | MIC [2] [mg/L] | MIC [3] [mg/L] | MIC (S. pullorum CVCC1789) [mg/L] | MIC (Escherichia coli CVCC195) [mg/L] | MIC [4] [mg/L] | MIC (S. pullorum CVCC1802) [mg/L] | MIC (S. suis CVCC606) [mg/L] | MIC (S. choleraesuis CVCC503) [mg/L] | MIC [5] [mg/L] | MIC (S. enteritidis CVCC3377 [6]) [mg/L] | MIC [7] [mg/L] | MIC (S. aureus ATCC25923) [mg/L] | MIC (P. aeruginosa CICC21630) [mg/L] | MIC (E. coli CVCC1515) [mg/L] | MIC [10] [mg/L] | other results |
| --- | --- | --- | --- | --- | --- | --- | --- | --- | --- | --- | --- | --- | --- | --- | --- | --- | --- |
| CC(C)[C@@H]1NC(=O)CNC(=O)[C@H](CC(N)=O)NC(=O)[C@H](CCCNC(=N)N)NC(=O)[C@H](Cc2ccc(O)cc2)NC(=O)[C@H](C(C)C)NC(=O)[C@@H](NC(=O)[C@@H](NC(=O)[C@H](CC(N)=O)NC(=O)[C@H](Cc2c[nH]c3ccccc23)NC(=O)[C@H](C)NC(=O)[C@H](Cc2ccccc2)NC(=O)CN)C(C)C)CSSC[C@@H](C(=O)N[C@@H](Cc2c[nH]cn2)C(=O)N[C@@H](CCCNC(=N)N)C(=O)N[C@@H](CCCNC(=N)N)C(=O)N[C@@H](C)C(=O)N[C@@H](CC(N)=O)C(=O)O)NC(=O)[C@H](C(C)C)NC(=O)[C@H](CCCNC(=N)N)NC1=O [N6] (H-GFAWNVCVYRNGVRVCHRRAN-OH; disulfide 7-16) | 0.5 (≈ 0.202 µM) | 4 (≈ 1.62 µM) | 8 (≈ 3.23 µM) | 0.5 (≈ 0.202 µM) | 0.5 (≈ 0.202 µM) | 2 (≈ 0.808 µM) | 0.5 (≈ 0.202 µM) | 16 (≈ 6.46 µM) | 2 (≈ 0.808 µM) | 16 (≈ 6.46 µM) | 0.25 (≈ 0.101 µM) | 64 (≈ 25.8 µM) | 0.25 (≈ 0.101 µM) | 4 (≈ 1.62 µM) | 1 (≈ 0.404 µM) | – | inhibition of 3H-thymidine incorporation (DNA synthesis) (E. coli CVCC195): 43.8%; inhibition of DNA synthesis (3H-thymidine) (S. enteritidis CVCC3377 [8]): 61.8%; inhibition of RNA biosynthesis (3H-uridine) (S. enteritidis CVCC3377 [8]): 5.7% |
| CC1(C)S[C@@H]2[C@H](NC(=O)[C@H](N)c3ccccc3)C(=O)N2[C@H]1C(=O)O [ampicillin] | – | – | – | – | – | – | – | – | – | – | – | – | – | – | – | – | BC displacement / binding to LPS [9]: did not displace BC |
| CC(C)[C@@H]1NC(=O)CNC(=O)[C@H](CC(N)=O)NC(=O)[C@H](CCCNC(=N)N)NC(=O)[C@H](Cc2ccc(O)cc2)NC(=O)[C@H](C(C)C)NC(=O)[C@H](C)NC(=O)[C@H](C(C)C)NC(=O)[C@H](CC(N)=O)NC(=O)[C@H](Cc2c[nH]c3ccccc23)NC(=O)[C@@H](NC(=O)[C@H](Cc2ccccc2)NC(=O)CN)CSSC[C@@H](C(=O)N[C@@H](CC(N)=O)C(=O)O)NC(=O)[C@H](CCCNC(=N)N)NC(=O)[C@H](CCCNC(=N)N)NC(=O)[C@H](Cc2c[nH]cn2)NC(=O)[C@H](C)NC(=O)[C@H](C(C)C)NC(=O)[C@H](CCCNC(=N)N)NC1=O [N7] (H-GFCWNVAVYRNGVRVAHRRCN-OH; disulfide 3-20) | 2 (≈ 0.808 µM) | 2 (≈ 0.808 µM) | >64 | 4 (≈ 1.62 µM) | 2 (≈ 0.808 µM) | 8 (≈ 3.23 µM) | 4 (≈ 1.62 µM) | 8 (≈ 3.23 µM) | 16 (≈ 6.46 µM) | >64 | 0.5 (≈ 0.202 µM) | >16 | 0.5 (≈ 0.202 µM) | >64 | 2 (≈ 0.808 µM) | 2 (≈ 0.808 µM) | – |
| CC(C)[C@@H]1NC(=O)CNC(=O)[C@H](CC(N)=O)NC(=O)[C@H](CCCNC(=N)N)NC(=O)[C@H](Cc2ccc(O)cc2)NC(=O)[C@H](C(C)C)NC(=O)[C@@H]2CSSC[C@H](NC(=O)[C@H](C(C)C)NC(=O)[C@H](CCCNC(=N)N)NC1=O)C(=O)N[C@@H](Cc1c[nH]cn1)C(=O)N[C@@H](CCCNC(=N)N)C(=O)N[C@@H](CCCNC(=N)N)C(=O)N[C@H](C(=O)N[C@@H](CC(N)=O)C(=O)O)CSSC[C@H](NC(=O)[C@H](Cc1ccccc1)NC(=O)CN)C(=O)N[C@@H](CCCCN)C(=O)N[C@@H](C)C(=O)N[C@@H](C(C)C)C(=O)N2 [N3] (H-GFCKAVCVYRNGVRVCHRRCN-OH; disulfide 3-20, 7-16) | 2 (≈ 0.821 µM) | 8 (≈ 3.28 µM) | >16 | 2 (≈ 0.821 µM) | 1 (≈ 0.41 µM) | 4 (≈ 1.64 µM) | 1 (≈ 0.41 µM) | 16 (≈ 6.57 µM) | – | >16 | 0.5 (≈ 0.205 µM) | >16 | 0.25 (≈ 0.103 µM) | 16 (≈ 6.57 µM) | 1 (≈ 0.41 µM) | 8 (≈ 3.28 µM) | – |
| CC(C)[C@@H]1NC(=O)CNC(=O)[C@H](CC(N)=O)NC(=O)[C@H](CCCNC(=N)N)NC(=O)[C@H](Cc2ccc(O)cc2)NC(=O)[C@H](C(C)C)NC(=O)[C@@H]2CSSC[C@H](NC(=O)[C@H](C(C)C)NC(=O)[C@H](CCCNC(=N)N)NC1=O)C(=O)N[C@@H](Cc1c[nH]cn1)C(=O)N[C@@H](CCCNC(=N)N)C(=O)N[C@@H](CCCNC(=N)N)C(=O)N[C@H](C(=O)N[C@@H](CC(N)=O)C(=O)O)CSSC[C@H](NC(=O)[C@H](Cc1ccccc1)NC(=O)CNC(=O)[C@@H](N)Cc1c[nH]c3ccccc13)C(=O)N[C@@H](Cc1c[nH]c3ccccc13)C(=O)N[C@@H](CC(N)=O)C(=O)N[C@@H](C(C)C)C(=O)N2 [N4] (H-WGFCWNVCVYRNGVRVCHRRCN-OH; disulfide 4-21, 8-17) | 1 (≈ 0.367 µM) | – | – | 1 (≈ 0.367 µM) | 1 (≈ 0.367 µM) | 2 (≈ 0.734 µM) | 2 (≈ 0.734 µM) | – | – | 8 (≈ 2.94 µM) | 0.25 (≈ 0.0918 µM) | – | 1 (≈ 0.367 µM) | 4 (≈ 1.47 µM) | 1 (≈ 0.367 µM) | – | – |
| GFWNVVYRNGVRVHRRN [N5] | 64 | 64 | >128 | >128 | 64 | 128 | >128 | >128 | >128 | >128 | 4 | >128 | 2 | >128 | 128 | 128 | MIC [11]: 64 mg/L |
| CC(C)[C@@H]1NC(=O)[C@H](C)NC(=O)[C@H](CC(N)=O)NC(=O)[C@H](CCCNC(=N)N)NC(=O)[C@H](Cc2ccc(O)cc2)NC(=O)[C@H](C(C)C)NC(=O)[C@@H]2CSSC[C@H](NC(=O)[C@H](C(C)C)NC(=O)[C@H](CCCNC(=N)N)NC1=O)C(=O)N[C@@H](Cc1c[nH]cn1)C(=O)N[C@@H](CCCNC(=N)N)C(=O)N[C@@H](CCCNC(=N)N)C(=O)N[C@H](C(=O)N[C@@H](CC(N)=O)C(=O)O)CSSC[C@H](NC(=O)[C@H](Cc1ccccc1)NC(=O)[C@H](C)N)C(=O)N[C@@H](Cc1c[nH]c3ccccc13)C(=O)N[C@@H](CC(N)=O)C(=O)N[C@@H](C(C)C)C(=O)N2 [N2] (H-AFCWNVCVYRNAVRVCHRRCN-OH; disulfide 3-20, 7-16) | 0.5 (≈ 0.195 µM) | 4 (≈ 1.56 µM) | 2 (≈ 0.779 µM) | 0.5 (≈ 0.195 µM) | 0.25 (≈ 0.0974 µM) | 1 (≈ 0.39 µM) | 0.25 (≈ 0.0974 µM) | 16 (≈ 6.24 µM) | – | 16 (≈ 6.24 µM) | 0.125 (≈ 0.0487 µM) | 32 (≈ 12.5 µM) | 0.25 (≈ 0.0974 µM) | 2 (≈ 0.779 µM) | 0.5 (≈ 0.195 µM) | 4 (≈ 1.56 µM) | inhibition of 3H-thymidine incorporation (DNA synthesis) (E. coli CVCC195): 28.6%; inhibition of 3H-uridine incorporation (RNA synthesis) (E. coli CVCC195): 18.7%; inhibition of DNA synthesis (3H-thymidine) (S. enteritidis CVCC3377 [8]): 35.5%; inhibition of protein synthesis (3H-leucine) (S. enteritidis CVCC3377 [8]): 17.0% |
| GFAWNVAVYRNGVRVAHRRAN [N8] | 4 | 16 | >128 | >128 | 32 | >64 | 32 | >128 | >64 | >64 | 1 | – | 2 | >128 | 16 | – | MIC [11]: 16 mg/L |
